Assay results as given in patent publication US9676715B2, “Bis-indolic derivatives, a process for preparing the same and their uses as a drug” (UNIVERSITE JOSEPH FOURIER, priority 2011, dated 2017).
Converted amounts (≈) assume the structure as drawn.

Experiments:
[1] = test system: S. aureus ATCC 106414 (VISA); experiment: MIC, microdilution method (9.1); format: cell-based, Staphylococcus aureus; conditions: Staphylococcus aureus, read after 18 h, read-out: MIC
Method in brief: (§1)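 CLSI broth microdilution in Mueller Hinton broth, final inoculum 5×10^5 CFU/ml, with two-fold compound dilutions (0.50-128 mg/L final). Incubation at 37° C in ambient air, or 5% CO2 with 10% sheep blood for fastidious species.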

S. aureus ATCC 25923 = experiment: MIC, microdilution method (9.1); format: cell-based, Staphylococcus aureus; conditions: Staphylococcus aureus, ATCC25923, read after 18 h, read-out: MIC
Method in brief: as §1

S. aureus ATCC 29213 = experiment: MIC, microdilution method (9.1); format: cell-based, Staphylococcus aureus; conditions: Staphylococcus aureus, ATCC29213, read after 18 h, read-out: MIC
Method in brief: as §1

[2] = test system: S. aureus ATCC 33592 (MRSA); experiment: MIC, microdilution method (9.1); format: cell-based, Staphylococcus aureus; conditions: Staphylococcus aureus, read after 18 h, read-out: MIC
Method in brief: as §1

S. aureus ATCC 6538 = experiment: MIC, microdilution method (9.1); format: cell-based, Staphylococcus aureus; conditions: Staphylococcus aureus, ATCC6538, read after 18 h, read-out: MIC
Method in brief: as §1

S. aureus ATCC 9144 = experiment: MIC, microdilution method (9.1); format: cell-based, Staphylococcus aureus; conditions: Staphylococcus aureus, ATCC9144, read after 18 h, read-out: MIC
Method in brief: as §1

S. aureus CIP 103428 = experiment: MIC, microdilution method (9.1); format: cell-based, Staphylococcus aureus; conditions: Staphylococcus aureus, CIP103428, read after 18 h, read-out: MIC
Method in brief: as §1

[3] = test system: S. aureus CIP 65.25 (MRSA); experiment: MIC, microdilution method (9.1); format: cell-based, Staphylococcus aureus; conditions: Staphylococcus aureus, read after 18 h, read-out: MIC
Method in brief: as §1

S. aureus CIP 65.6 = experiment: MIC, microdilution method (9.1); format: cell-based, Staphylococcus aureus; conditions: Staphylococcus aureus, CIP65, read after 18 h, read-out: MIC
Method in brief: as §1

S. aureus SA-1199B = experiment: MIC, microdilution method (9.1); format: cell-based, Staphylococcus aureus; conditions: Staphylococcus aureus, SA1199B, 18 h
Method in brief: as §1

[4] = test system: S. epidermidis ATCC 12228; experiment: MIC, microdilution method (9.1); format: cell-based, Staphylococcus epidermidis; conditions: Staphylococcus epidermidis, ATCC12228, read after 18 h, read-out: MIC
Method in brief: as §1

[5] = test system: S. epidermidis CIP 103627; experiment: MIC, microdilution method (9.1); format: cell-based, Staphylococcus epidermidis; conditions: Staphylococcus epidermidis, CIP103627, read after 18 h, read-out: MIC
Method in brief: as §1

S. epidermidis CIP 81.55 = experiment: MIC, microdilution method (9.1); format: cell-based, Staphylococcus epidermidis; conditions: Staphylococcus epidermidis, CIP81, read after 18 h, read-out: MIC
Method in brief: as §1

[6] = test system: HCT116 (human colon tumor); experiment: In vitro cytotoxicity; format: cell-based; conditions: read-out: % of cellular growth inhibition; for inhibition at 10 µM: HCT-116, 10^−5 M; for inhibition at 1 µM: HCT-116, 10^−6 M
Description: (§2) In vitro cytotoxicity was assayed on three cell lines—KB (human mouth carcinoma), MCR5 (human lung fibroblast) and HCT116 (human colon tumor). Results are presented in table IV as % of cellular growth inhibition in presence of 10^−5 M and 10^−6 M of the tested bis-indolic derivatives.

[7] = test system: KB (human mouth carcinoma); experiment: In vitro cytotoxicity; format: cell-based; conditions: read-out: % of cellular growth inhibition; for inhibition at 10 µM: 10^−5 M; for inhibition at 1 µM: 10^−6 M
Description: as §2

[8] = test system: MRC5 (human lung fibroblast); experiment: In vitro cytotoxicity; format: cell-based; conditions: read-out: % of cellular growth inhibition; for inhibition at 10 µM: 10^−5 M; for inhibition at 1 µM: 10^−6 M
Description: as §2

S. pneumoniae ATCC 6303 = experiment: MIC, microdilution method (9.1); format: cell-based, Streptococcus pneumoniae; conditions: Streptococcus pneumoniae, ATCC6303, 10% sheep blood, 5% CO2, 18 h, read-out: MIC
Method in brief: as §1

[9] = test system: S. agalactiae (group B) ATCC 12400; experiment: MIC, microdilution method (9.1); format: cell-based, Streptococcus agalactiae; conditions: Streptococcus agalactiae, ATCC12400, 18 h, read-out: MIC
Method in brief: as §1

[10] = test system: S. pyogenes (group A) CIP 104226; experiment: MIC, microdilution method (9.1); format: cell-based, Streptococcus pyogenes; conditions: Streptococcus pyogenes, CIP104226, 18 h, read-out: MIC
Method in brief: as §1

S. mitis CIP 103335 = experiment: MIC, microdilution method (9.1); format: cell-based, Streptococcus mitis; conditions: Streptococcus mitis, CIP103335, 18 h, read-out: MIC
Method in brief: as §1

E. faecium CIP 54.32 = experiment: MIC, microdilution method (9.1); format: cell-based, Enterococcus faecium; conditions: Enterococcus faecium, CIP54, 18 h, read-out: MIC
Method in brief: as §1

E. faecalis ATCC 29212 = experiment: MIC, microdilution method (9.1); format: cell-based, Enterococcus faecalis; conditions: Enterococcus faecalis, ATCC29212, 18 h, read-out: MIC
Method in brief: as §1

[11] = test system: Acinetobacter baumanii ATCC 19606; experiment: MIC, microdilution method (9.1); format: cell-based; conditions: Acinetobacter baumannii, ATCC19606, 18 h, read-out: MIC
Method in brief: as §1

[12] = test system: Bacillus subtilis CIP 5262; experiment: MIC, microdilution method (9.1); format: cell-based; conditions: CIP5262, 18 h, read-out: MIC
Method in brief: as §1

[13] = test system: Enterobacter cloacae ATCC13047; experiment: MIC, microdilution method (9.1); format: cell-based; conditions: 18 h
Method in brief: as §1

[14] = test system: Escherichia coli ATCC 25922; experiment: MIC, microdilution method (9.1); format: cell-based; conditions: ATCC25922, 18 h
Method in brief: as §1

[15] = test system: Haemophilus influenzae ATCC 49766; experiment: MIC, microdilution method (9.1); format: cell-based; conditions: ATCC49766; Haemophilus influenzae ATCC 49766; 10% sheep blood, 5% CO2; 18 h; read-out: MIC
Method in brief: as §1

[16] = test system: Klebsiella pneumoniae API ATCC 35657; experiment: MIC, microdilution method (9.1); format: cell-based; conditions: ATCC35657, 18 h, read-out: MIC
Method in brief: as §1

[17] = test system: Listeria innocua CIP 80.11; experiment: MIC, microdilution method (9.1); format: cell-based; conditions: CIP80, 18 h, read-out: MIC
Method in brief: as §1

[18] = test system: Pseudomonas aeruginosa CIP 5933; experiment: MIC, microdilution method (9.1); format: cell-based; conditions: CIP5933, 18 h, read-out: MIC
Method in brief: as §1

S. pneumoniae ATCC 49619 = experiment: MIC, microdilution method (9.1); format: cell-based; conditions: Streptococcus pneumoniae, ATCC49619, 10% sheep blood, 5% CO2, 18 h
Method in brief: as §1

[19] = test system: Serratia marcescens CIP 103551; experiment: MIC, microdilution method (9.1); format: cell-based; conditions: CIP103551, 18 h
Method in brief: as §1

[20] = test system: HCT116 (human colon tumor); experiment: In vitro cytotoxicity; format: cell-based; conditions: HCT-116, HCT116, from 100 μM to 0.005 μM in DMSO, duplicate

Structure (SMILES) | MIC [1] [µg/mL] | MIC (S. aureus ATCC 25923) [µg/mL] | MIC (S. aureus ATCC 29213) [µg/mL] | MIC [2] [µg/mL] | MIC (S. aureus ATCC 6538) [µg/mL] | MIC (S. aureus ATCC 9144) [µg/mL] | MIC (S. aureus CIP 103428) [µg/mL] | MIC [3] [µg/mL] | MIC (S. aureus CIP 65.6) [µg/mL] | MIC (S. aureus SA-1199B) [µg/mL] | MIC [4] [µg/mL] | MIC [5] [µg/mL] | MIC (S. epidermidis CIP 81.55) [µg/mL] | inhibition at 10 µM [6] [%] | inhibition at 1 µM [6] [%] | inhibition at 10 µM [7] [%] | inhibition at 1 µM [7] [%] | inhibition at 10 µM [8] [%] | inhibition at 1 µM [8] [%] | melting point [°C] | also measured
COC(=O)C(NC(=O)c1c[nH]c2ccc(Br)cc12)c1c[nH]c2ccc(Br)cc12 (centres unmarked) [Compound 11, Methyl 2-(5-bromo-1H-indol-3-yl)-2-(5-bromo-1H-indole-3-carboxamido)acetate] | 4 (≈ 7.92 µM) | 4 (≈ 7.92 µM) | 4 (≈ 7.92 µM) | 4 (≈ 7.92 µM) | 4 (≈ 7.92 µM) | 4 (≈ 7.92 µM) | 4 (≈ 7.92 µM) | 4 (≈ 7.92 µM) | 4 (≈ 7.92 µM) | 4 (≈ 7.92 µM) | 4 (≈ 7.92 µM) | 4 (≈ 7.92 µM) | 4 (≈ 7.92 µM) | 51 ± 5 | 0 | 51 ± 1 | 0 | 28 ± 9 | 0 | 126 | –
O=C(NC(CO)c1c[nH]c2ccc(Br)cc12)c1c[nH]c2ccc(Br)cc12 (centres unmarked) [Compound 13, 5-Bromo-N-(1-(5-bromo-1H-indol-3-yl)-2-hydroxyethyl)-1H-indole-3-carboxamide] | 4 (≈ 8.38 µM) | 4 (≈ 8.38 µM) | 4 (≈ 8.38 µM) | 4 (≈ 8.38 µM) | 4 (≈ 8.38 µM) | 4 (≈ 8.38 µM) | 4 (≈ 8.38 µM) | 4 (≈ 8.38 µM) | 4 (≈ 8.38 µM) | 8 (≈ 16.8 µM) | 4 (≈ 8.38 µM) | 4 (≈ 8.38 µM) | 4 (≈ 8.38 µM) | 12 ± 5 | 0 | 1 ± 4 | 0 | 6 ± 1 | 0 | 155 | –
CC(C)(C)OC(=O)NCC(NC(=O)c1c[nH]c2cc(Br)ccc12)c1c[nH]c2cc(Br)ccc12 (centres unmarked) [Compound 3i, tert-Butyl (2-(6-bromo-1H-indol-3-yl)-2-(6-bromo-1H-indolyl-3-carboxamido)ethyl)carbamate] | 1 (≈ 1.74 µM) | 2 (≈ 3.47 µM) | 2 (≈ 3.47 µM) | 1 (≈ 1.74 µM) | 2 (≈ 3.47 µM) | 2 (≈ 3.47 µM) | 1 (≈ 1.74 µM) | 1 (≈ 1.74 µM) | 1 (≈ 1.74 µM) | 1 (≈ 1.74 µM) | 2 (≈ 3.47 µM) | 2 (≈ 3.47 µM) | 2 (≈ 3.47 µM) | 91 ± 1 | 4 | 100 ± 1 | 3 | 91 ± 7 | 10 | – | MIC (S. pneumoniae ATCC 6303): 32 µg/mL (≈ 55.5 µM); MIC [9]: 32 µg/mL (≈ 55.5 µM); MIC [10]: 32 µg/mL (≈ 55.5 µM); MIC (S. mitis CIP 103335): 64 µg/mL (≈ 111 µM); MIC (E. faecium CIP 54.32): 64 µg/mL (≈ 111 µM); MIC (E. faecalis ATCC 29212): > 128 µg/mL; MIC [11]: > 128 µg/mL; MIC [12]: 64 µg/mL (≈ 111 µM); MIC [13]: > 128 µg/mL; MIC [14]: > 128 µg/mL; MIC [15]: 16 µg/mL (≈ 27.8 µM); MIC [16]: > 128 µg/mL; MIC [17]: 32 µg/mL (≈ 55.5 µM); MIC [18]: > 128 µg/mL; MIC (S. pneumoniae ATCC 49619): 32 µg/mL (≈ 55.5 µM); MIC [19]: > 128 µg/mL; IC50 ([20]; first value): 1900 nM; IC50 ([20]; second value): 2100 nM
